Measurements from paper PMC2615555 (Virology, 2008).
Peptide text beside a SMILES is read from it.

Tests used:
Assay in all cases: biochemical
Format in all cases: binding, BALB/c mouse
H2-K^d = H2-K^d (Mus musculus, UniProt P01902)
H2-D^d = H2-D^d (Mus musculus, UniProt P01900)
H2-L^d = H2-L^d (Mus musculus, UniProt P01897)
I-A^d = target: T1, I-A^d (Mus musculus, UniProt P01921+P04228); settings: Binding Assay IC50, I-A^d (membrane 15mers)
T1 sequence (P04228 24-256): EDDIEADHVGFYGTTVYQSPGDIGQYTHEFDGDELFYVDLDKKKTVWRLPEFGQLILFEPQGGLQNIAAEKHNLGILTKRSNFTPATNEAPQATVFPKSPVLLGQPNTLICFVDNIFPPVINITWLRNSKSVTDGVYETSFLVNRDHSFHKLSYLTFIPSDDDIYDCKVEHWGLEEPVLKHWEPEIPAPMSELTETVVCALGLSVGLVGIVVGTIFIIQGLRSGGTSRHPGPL
T1 sequence (P01921 28-265): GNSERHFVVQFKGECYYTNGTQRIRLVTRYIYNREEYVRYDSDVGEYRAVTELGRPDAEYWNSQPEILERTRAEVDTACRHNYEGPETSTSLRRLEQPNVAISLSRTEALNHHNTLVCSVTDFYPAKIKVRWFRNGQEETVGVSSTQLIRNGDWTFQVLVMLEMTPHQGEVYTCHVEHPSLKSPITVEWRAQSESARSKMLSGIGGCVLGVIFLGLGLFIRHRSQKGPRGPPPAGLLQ

I-E^d = target: T2, I-E^d (Mus musculus, UniProt P01904+P01915)
T2 sequence (P01904 26-255): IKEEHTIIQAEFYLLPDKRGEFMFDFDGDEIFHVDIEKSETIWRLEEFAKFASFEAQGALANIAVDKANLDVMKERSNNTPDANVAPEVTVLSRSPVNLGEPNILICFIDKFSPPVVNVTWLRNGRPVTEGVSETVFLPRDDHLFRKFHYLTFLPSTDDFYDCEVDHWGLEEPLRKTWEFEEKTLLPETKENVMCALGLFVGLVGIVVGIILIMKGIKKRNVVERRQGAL
T2 sequence (P01915 27-264 limits assumed): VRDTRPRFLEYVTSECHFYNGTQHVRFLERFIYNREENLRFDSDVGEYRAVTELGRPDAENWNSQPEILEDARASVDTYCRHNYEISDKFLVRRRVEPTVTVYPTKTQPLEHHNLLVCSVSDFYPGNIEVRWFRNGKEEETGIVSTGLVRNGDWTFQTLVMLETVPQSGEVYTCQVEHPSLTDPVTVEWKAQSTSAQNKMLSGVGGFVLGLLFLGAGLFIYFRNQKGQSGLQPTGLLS

Sequence of H2-K^d (P01902 22-368): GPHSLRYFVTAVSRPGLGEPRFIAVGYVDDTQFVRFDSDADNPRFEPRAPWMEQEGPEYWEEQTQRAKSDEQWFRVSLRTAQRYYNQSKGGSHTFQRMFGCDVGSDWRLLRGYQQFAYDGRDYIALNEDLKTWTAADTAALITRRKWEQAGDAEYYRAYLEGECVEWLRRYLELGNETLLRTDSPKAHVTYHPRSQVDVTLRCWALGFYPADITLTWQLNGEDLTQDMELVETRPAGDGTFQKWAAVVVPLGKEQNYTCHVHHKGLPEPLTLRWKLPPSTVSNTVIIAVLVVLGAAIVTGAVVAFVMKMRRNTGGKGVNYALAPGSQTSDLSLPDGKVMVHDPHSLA
Sequence of H2-K^d (P61769 21-119 partner): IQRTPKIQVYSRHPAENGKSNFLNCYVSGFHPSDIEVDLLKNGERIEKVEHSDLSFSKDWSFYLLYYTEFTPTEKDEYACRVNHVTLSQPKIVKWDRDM
Sequence of H2-D^d (P01900 25-365): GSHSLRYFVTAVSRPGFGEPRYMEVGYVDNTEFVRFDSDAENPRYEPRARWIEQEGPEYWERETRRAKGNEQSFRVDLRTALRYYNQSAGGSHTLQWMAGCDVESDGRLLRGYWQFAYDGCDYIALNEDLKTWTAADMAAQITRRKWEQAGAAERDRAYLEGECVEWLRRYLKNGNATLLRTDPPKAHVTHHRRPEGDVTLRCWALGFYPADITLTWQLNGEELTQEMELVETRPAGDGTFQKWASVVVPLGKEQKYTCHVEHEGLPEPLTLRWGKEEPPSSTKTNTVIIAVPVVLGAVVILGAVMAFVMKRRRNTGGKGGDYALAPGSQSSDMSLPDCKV
Sequence of H2-D^d (P61769 21-119 partner): as the sequence (P61769 21-119 partner) above
Sequence of H2-L^d (P01897 25-362): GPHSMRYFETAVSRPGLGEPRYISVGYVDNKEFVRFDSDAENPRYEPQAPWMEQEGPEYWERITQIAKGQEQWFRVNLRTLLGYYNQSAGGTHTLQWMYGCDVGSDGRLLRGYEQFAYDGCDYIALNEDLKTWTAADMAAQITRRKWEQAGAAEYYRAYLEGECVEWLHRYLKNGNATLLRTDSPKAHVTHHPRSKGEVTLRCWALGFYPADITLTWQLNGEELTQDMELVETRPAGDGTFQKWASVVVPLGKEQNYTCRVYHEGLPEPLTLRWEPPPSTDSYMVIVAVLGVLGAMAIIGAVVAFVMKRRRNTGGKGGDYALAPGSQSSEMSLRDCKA
Sequence of H2-L^d (P61769 21-119 partner): as the sequence (P61769 21-119 partner) above

Row | Structure (SMILES) | IC50 (H2-K^d) [nM] | IC50 (H2-D^d) [µM] | IC50 (H2-L^d) [µM] | IC50 (I-A^d) [µM] | IC50 (I-E^d) [µM]
1 | CC(C)C[C@H](NC(=O)[C@@H](NC(=O)[C@H](C)NC(=O)[C@H](CC(N)=O)NC(=O)[C@H](Cc1ccc(O)cc1)NC(=O)[C@H](CS)NC(=O)[C@@H](NC(=O)[C@H](CCCCN)NC(=O)[C@@H](N)CCCNC(=N)N)C(C)C)C(C)C)C(=O)O [E57–65] | > 70000 | > 70 | 39.4 | – | –
2 | CC(C)C[C@H](NC(=O)[C@@H](NC(=O)[C@H](C)NC(=O)[C@H](CC(N)=O)NC(=O)[C@H](Cc1ccc(O)cc1)NC(=O)[C@@H](N)CS)C(C)C)C(=O)N[C@H](C(=O)N[C@@H](Cc1c[nH]cn1)C(=O)N[C@H](C(=O)O)C(C)C)[C@@H](C)O [E60–68] (H-CYNAVLTHV-OH) | 1 | > 70 | > 70 | – | –
3 | CC[C@H](C)[C@H](N)C(=O)N1CCC[C@H]1C(=O)N[C@H](C(=O)N[C@H](C(=O)N[C@H](C(=O)N[C@@H](C)C(=O)N[C@@H](CC(=O)O)C(=O)N[C@@H](CC(=O)O)C(=O)N[C@@H](CC(C)C)C(=O)O)C(C)C)[C@@H](C)CC)C(C)C [E332–340] (H-IPVIVADDL-OH) | 33000 | > 70 | 0.056 | – | –
4 | CC(C)C[C@H](NC(=O)[C@@H](NC(=O)[C@H](C)NC(=O)[C@H](CC(N)=O)NC(=O)[C@@H](N)Cc1ccc(O)cc1)C(C)C)C(=O)N[C@H](C(=O)N[C@@H](Cc1c[nH]cn1)C(=O)N[C@H](C(=O)N[C@@H](CCCCN)C(=O)O)C(C)C)[C@@H](C)O [E61–69] (H-YNAVLTHVK-OH) | 93 | > 70 | > 70 | – | –
5 | CC[C@H](C)[C@H](NC(=O)[C@H](CCCCN)NC(=O)[C@@H](NC(=O)[C@H](Cc1c[nH]cn1)NC(=O)[C@@H](NC(=O)[C@H](CC(C)C)NC(=O)[C@@H](NC(=O)[C@H](C)N)C(C)C)[C@@H](C)O)C(C)C)C(=O)N[C@@H](CC(N)=O)C(=O)O [E63–71] (H-AVLTHVKIN-OH) | 54700 | > 70 | 20.7 | – | –
6 | CC[C@H](C)[C@H](N)C(=O)N[C@H](C(=O)N[C@@H](C)C(=O)N[C@@H](CC(=O)O)C(=O)N[C@@H](CC(=O)O)C(=O)N[C@@H](CC(C)C)C(=O)N[C@H](C(=O)N[C@@H](C)C(=O)N[C@@H](C)C(=O)O)[C@@H](C)O)C(C)C [E335–343] (H-IVADDLTAA-OH) | > 70000 | > 70 | 38 | – | –
7 | CC[C@H](C)[C@H](NC(=O)[C@@H](N)C(C)C)C(=O)N[C@H](C(=O)N[C@@H](C)C(=O)N[C@@H](CC(=O)O)C(=O)N[C@@H](CC(=O)O)C(=O)N[C@@H](CC(C)C)C(=O)N[C@H](C(=O)N[C@@H](C)C(=O)O)[C@@H](C)O)C(C)C [E334–342] (H-VIVADDLTA-OH) | > 70000 | > 70 | 19.2 | – | –
8 | CC[C@H](C)[C@H](NC(=O)[C@H](C)N)C(=O)N[C@@H](CC(=O)O)C(=O)N[C@@H](CC(C)C)C(=O)N1CCC[C@H]1C(=O)N[C@H](C(=O)N[C@@H](Cc1c[nH]cn1)C(=O)N[C@@H](CCC(=O)O)C(=O)N[C@@H](CC(N)=O)C(=O)N[C@@H](Cc1c[nH]cn1)C(=O)NCC(=O)N[C@@H](CC(C)C)C(=O)N[C@@H](CCCCN)C(=O)N[C@H](C(=O)N[C@@H](CCCNC(=N)N)C(=O)O)[C@@H](C)O)[C@@H](C)O [M1–15] | – | – | – | > 45 | 36.6
9 | CSCC[C@H](NC(=O)[C@H](Cc1c[nH]c2ccccc12)NC(=O)[C@H](CCCCN)NC(=O)[C@H](CCC(=O)O)NC(=O)[C@H](CCC(N)=O)NC(=O)[C@H](CCCNC(=N)N)NC(=O)[C@@H](NC(=O)[C@H](CCCCN)NC(=O)[C@H](CC(C)C)NC(=O)CNC(=O)[C@H](Cc1c[nH]cn1)NC(=O)[C@@H](N)CC(N)=O)[C@@H](C)O)C(=O)N[C@H](C(=O)NCC(=O)N[C@@H](CCCNC(=N)N)C(=O)O)[C@@H](C)O [M9–23] | – | – | – | 40.9 | > 45
10 | CC[C@H](C)[C@H](NC(=O)[C@H](CCCCN)NC(=O)[C@@H](NC(=O)[C@H](Cc1c[nH]cn1)NC(=O)[C@@H](NC(=O)[C@H](CC(C)C)NC(=O)[C@@H](NC(=O)[C@H](C)NC(=O)[C@@H](N)CC(N)=O)C(C)C)[C@@H](C)O)C(C)C)C(=O)O [E62–70] (H-NAVLTHVKI-OH) | 1540 | > 70 | > 70 | – | –
11 | CC(C)C[C@H](NC(=O)[C@@H](NC(=O)[C@H](C)NC(=O)[C@H](CC(N)=O)NC(=O)[C@H](Cc1ccc(O)cc1)NC(=O)[C@H](CS)NC(=O)[C@@H](N)C(C)C)C(C)C)C(=O)N[C@H](C(=O)N[C@@H](Cc1c[nH]cn1)C(=O)O)[C@@H](C)O [E59–67] (H-VCYNAVLTH-OH) | 211 | > 70 | 55.4 | – | –
12 | CC[C@H](C)[C@H](NC(=O)[C@@H](NC(=O)[C@@H]1CCCN1)C(C)C)C(=O)N[C@H](C(=O)N[C@@H](C)C(=O)N[C@@H](CC(=O)O)C(=O)N[C@@H](CC(=O)O)C(=O)N[C@@H](CC(C)C)C(=O)N[C@H](C(=O)O)[C@@H](C)O)C(C)C [E333–341] (H-PVIVADDLT-OH) | > 70000 | > 70 | 3.72 | – | –
13 | CSCC[C@H](NC(=O)[C@H](CCCNC(=N)N)NC(=O)CNC(=O)[C@@H](NC(=O)[C@H](CCSC)NC(=O)[C@H](Cc1c[nH]c2ccccc12)NC(=O)[C@H](CCCCN)NC(=O)[C@H](CCC(=O)O)NC(=O)[C@H](CCC(N)=O)NC(=O)[C@H](CCCNC(=N)N)NC(=O)[C@@H](NC(=O)[C@@H](N)CCCCN)[C@@H](C)O)[C@@H](C)O)C(=O)NCC(=O)N[C@@H](CCC(=O)O)C(=O)N[C@@H](CCCNC(=N)N)C(=O)O [M13–27] | – | – | – | 1.9 | > 45
14 | CC[C@H](C)[C@H](NC(=O)[C@@H](NC(=O)[C@@H]1CCCN1C(=O)[C@@H](NC(=O)[C@H](CCCNC(=N)N)NC(=O)[C@@H](N)CS)[C@@H](C)CC)C(C)C)C(=O)N[C@H](C(=O)N[C@@H](C)C(=O)N[C@@H](CC(=O)O)C(=O)O)C(C)C [E330–338] (H-CRIPVIVAD-OH) | 915 | > 70 | 54.2 | – | –
15 | CC[C@H](C)[C@H](NC(=O)[C@@H](NC(=O)[C@H](CC(C)C)NC(=O)[C@H](C)NC(=O)[C@@H](N)[C@@H](C)O)[C@@H](C)O)C(=O)N[C@@H](C)C(=O)N[C@@H](Cc1ccc(O)cc1)C(=O)N[C@@H](CC(C)C)C(=O)N[C@H](C(=O)NCC(=O)N[C@@H](CO)C(=O)N[C@@H](CC(N)=O)C(=O)N[C@@H](CCSC)C(=O)N[C@H](C(=O)N[C@@H](CCC(N)=O)C(=O)O)[C@@H](C)O)C(C)C [M45–59] | – | – | – | 0.102 | > 45
16 | CC(C)C[C@H](NC(=O)CNC(=O)[C@H](Cc1c[nH]cn1)NC(=O)[C@H](CC(N)=O)NC(=O)[C@H](CCC(=O)O)NC(=O)[C@H](Cc1c[nH]cn1)NC(=O)[C@@H](NC(=O)[C@@H]1CCCN1)[C@@H](C)O)C(=O)N[C@@H](CCCCN)C(=O)N[C@H](C(=O)N[C@@H](CCCNC(=N)N)C(=O)N[C@@H](CCC(N)=O)C(=O)N[C@@H](CCC(=O)O)C(=O)N[C@@H](CCCCN)C(=O)N[C@@H](Cc1c[nH]c2ccccc12)C(=O)O)[C@@H](C)O [M5–19] | – | – | – | 13.2 | > 45
17 | CC[C@H](C)[C@H](NC(=O)[C@H](CCCCN)NC(=O)[C@H](CCC(N)=O)NC(=O)[C@H](CC(C)C)NC(=O)[C@H](CCC(N)=O)NC(=O)[C@H](CCCNC(=N)N)NC(=O)[C@H](CCC(=O)O)NC(=O)CN)C(=O)N[C@@H](CCC(=O)O)C(=O)N[C@@H](CCCNC(=N)N)C(=O)N[C@@H](Cc1c[nH]c2ccccc12)C(=O)N[C@@H](Cc1ccccc1)C(=O)N[C@H](C(=O)N[C@@H](CCCNC(=N)N)C(=O)N[C@@H](CC(N)=O)C(=O)O)C(C)C [M25–39] | – | – | – | > 45 | 13.2
